The source of these data is patent US20260207563A1, “UREA COMPOUNDS AS ACTIVATORS OF POTASSIUM CHANNELS KV7.2/7.3 USEFUL IN THE TREATMENT OF CNS AND PNS DISORDERS” (ANGELINI PHARMA S.P.A., priority 2022, published 2026).

Common to all, as to format: cell-based
Assay [1] deals with T1, heteromeric KV7.2/KV7.3 channels (KCNQ2, KCNQ3) (Homo sapiens, UniProt O43525+O43526).
T1 construct: expressed in transfected cells; host or cells: CHO-K1
As to the kind of experiment: Automated patch-clamp (Sophion Qube 384) potency assay against KV7.2/KV7.3 channels. Conditions: CHO-K1/Kv7.2/Kv7.3 cells; for EC50: EC50 from concentration-response of shift in Vhalf, 10 concentrations up to 30 μM, read-out: Kv7.2/7.3 EC50; for Kv7.2/7.3 ΔV1/2: maximal shift in the Vhalf from the top of the curve. In a few lines:
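Whole-cell automated patch clamp on CHO-K1 cells stably expressing human KV7.2/KV7.3, held at −80 mV; I-V steps −100 to +20 mV (1 s) with 0 mV tail pulses, Boltzmann-fitted activation curves. Ten concentrations (1:3 from 30 μM, quadruplicate) versus 0.3% DMSO control; EC50 and maximal shift from 4-parameter fits of Vhalf shift.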

Assay [2] deals with T2, homomeric KV7.4 channel (KCNQ4) (Homo sapiens, UniProt P56696).
T2 construct: host or cells: CHO-K1
Briefly: Automated patch-clamp (Qube) counter-screening assay against KV7.4 channel. Conditions: CHO-K1 cells expressing KV7.4; class by maximal shift in the Vhalf at 30 μM. In a few lines:
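CHO-K1 cells stably expressing homomeric human KV7.4 were recorded on the Qube automated patch clamp. Ten concentrations (1:3 dilutions from 30 μM) were tested in quadruplicate. The mean Vhalf shift was fitted with a 4-parameter logistic to give EC50 and maximal Vhalf shift, and selectivity was based on the shift at 30 μM.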
Background: In patch-clamp work, channel activity is measured electrically.

Assay [3] concerns the target T3, heteromeric KV7.3/KV7.5 channel (KCNQ3, KCNQ5) (Homo sapiens, UniProt O43525+Q9NR82).
T3 construct: host or cells: HEK293
As to the kind of experiment: Automated patch-clamp counter-screening against KV7.3/KV7.5 channel. As to conditions: HEK293 cells expressing Kv7.3/KV7.5; class by maximal shift in the Vhalf at 30 μM. Put shortly: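 HEK293 cells with constitutive Kv7.3 and tetracycline-inducible Kv7.5 were recorded by automated patch clamp. Ten concentrations (1:3 series from 30 μM, quadruplicate) were tested; Vhalf shifts were fitted with a 4-parameter logistic to give EC50 and maximal Vhalf shift, with selectivity based on the shift at 30 μM.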

For the molecule `CC(C)(OCCNC(=O)NCc1ccnc(OCC(F)(F)F)c1)C(F)(F)F` [Compound 48, 1-(2-((1,1,1-Trifluoro-2-methylpropan-2-yl)oxy)ethyl)-3-((2-(2,2,2-trifluoroethoxy)pyridin-4-yl)methyl)urea], in assay [1], the EC50 came to 2.41 µM and the “Kv7.2/7.3 ΔV1/2” value was 22.74 mV. The Kv7.4 selectivity criteria entry in assay [2] is recorded as “A (Selective compounds showed Kv7.4 and/or Kv7.3/7.5 ΔV1/2 equal to or lower than 15 mV (letter A in table 3))”. The Kv7.3/7.5 selectivity criteria result in assay [3] is recorded as “A (Selective compounds showed Kv7.4 and/or Kv7.3/7.5 ΔV1/2 equal to or lower than 15 mV (letter A in table 3))”.

`O=C(NCCC1(C(F)(F)F)CC1)NCc1ccnc(OCC(F)(F)F)n1` [Compound 49, 1-((2-(2,2,2-Trifluoroethoxy)pyrimidin-4-yl)methyl)-3-(2-(1-(trifluoromethyl)cyclopropyl)ethyl)urea]: in assay [1], the EC50 was 4.23 µM and the “Kv7.2/7.3 ΔV1/2” value came out at 23.89 mV. Besides, in assay [2], the Kv7.4 selectivity criteria entry was “A (Selective compounds showed Kv7.4 and/or Kv7.3/7.5 ΔV1/2 equal to or lower than 15 mV (letter A in table 3))”. In addition, the Kv7.3/7.5 selectivity criteria result in assay [3] was “A (Selective compounds showed Kv7.4 and/or Kv7.3/7.5 ΔV1/2 equal to or lower than 15 mV (letter A in table 3))”.

Consider `C[C@@H](Oc1cc(CNC(=O)NCCC2(C(F)(F)F)CC2)ccn1)C(F)(F)F` [Compound 51, (R)-1-(2-(1-(Trifluoromethyl)cyclopropyl)ethyl)-3-((2-((1,1,1-trifluoropropan-2-yl)oxy)pyridin-4-yl)methyl)urea], for which, in assay [1], the EC50 stood at 0.289 µM and the “Kv7.2/7.3 ΔV1/2” value is recorded as 33.62 mV. Also, in assay [2], the Kv7.4 selectivity criteria entry is “A (Selective compounds showed Kv7.4 and/or Kv7.3/7.5 ΔV1/2 equal to or lower than 15 mV (letter A in table 3))”. Moreover, in assay [3], the Kv7.3/7.5 selectivity criteria entry is given as “A (Selective compounds showed Kv7.4 and/or Kv7.3/7.5 ΔV1/2 equal to or lower than 15 mV (letter A in table 3))”.

Regarding `O=C(NCCC1(C(F)(F)F)CC1)NCc1ccnc(OCc2ncccc2F)c1` [Compound 54, 1-((2-((3-Fluoropyridin-2-yl)methoxy)pyridin-4-yl)methyl)-3-(2-(1-(trifluoromethyl)cyclopropyl)ethyl)urea], in assay [1], the EC50 came out at 7.61 µM and the “Kv7.2/7.3 ΔV1/2” value is listed as 22.67 mV. In addition, in assay [2], the Kv7.4 selectivity criteria result was “A (Selective compounds showed Kv7.4 and/or Kv7.3/7.5 ΔV1/2 equal to or lower than 15 mV (letter A in table 3))”. Besides, the Kv7.3/7.5 selectivity criteria entry in assay [3] was “A (Selective compounds showed Kv7.4 and/or Kv7.3/7.5 ΔV1/2 equal to or lower than 15 mV (letter A in table 3))”.

With `O=C(NCc1ccnc(OCC(F)(F)F)c1)N[C@H]1CCCC[C@H]1O` [Compound 58, 1-((1S,2R)-2-Hydroxycyclohexyl)-3-((2-(2,2,2-trifluoroethoxy)pyridin-4-yl)methyl) urea], in assay [1], the EC50 worked out at 10.5 µM and the “Kv7.2/7.3 ΔV1/2” value is listed as 48.9 mV. Also, the Kv7.4 selectivity criteria result in assay [2] is “B (Non-selective compounds showed Kv7.4 and/or Kv7.3/7.5 ΔV1/2 higher than 15 mV (letter B in table 3))”. For the same molecule, in assay [3], the Kv7.3/7.5 selectivity criteria entry is given as “B (Non-selective compounds showed Kv7.4 and/or Kv7.3/7.5 ΔV1/2 higher than 15 mV (letter B in table 3))”.

Turning to `O=C(NCc1ccnc(OCC(F)(F)F)c1)N[C@@H]1CCCC[C@@H]1O` [Compound 62, 1-((1R,2S)-2-Hydroxycyclohexyl)-3-((2-(2,2,2-trifluoroethoxy)pyridin-4-yl)methyl) urea], in assay [1], the EC50 turned out to be 11.7 µM and the “Kv7.2/7.3 ΔV1/2” value was 16.94 mV. The Kv7.4 selectivity criteria result in assay [2] is “A (Selective compounds showed Kv7.4 and/or Kv7.3/7.5 ΔV1/2 equal to or lower than 15 mV (letter A in table 3))”. In addition, the Kv7.3/7.5 selectivity criteria entry in assay [3] was “B (Non-selective compounds showed Kv7.4 and/or Kv7.3/7.5 ΔV1/2 higher than 15 mV (letter B in table 3))”.
